{"source": "ChEMBL document CHEMBL5291721", "about": "“A preclinical secondary pharmacology resource illuminates target-adverse drug reaction associations of marketed drugs” (Nat Commun, 2023); note: assay procedure not described here", "key": {"[1]": {"biological_target": "T1, Type-2 angiotensin II receptor (Homo sapiens, UniProt P50052)", "T1 sequence (P50052 whole entry)": "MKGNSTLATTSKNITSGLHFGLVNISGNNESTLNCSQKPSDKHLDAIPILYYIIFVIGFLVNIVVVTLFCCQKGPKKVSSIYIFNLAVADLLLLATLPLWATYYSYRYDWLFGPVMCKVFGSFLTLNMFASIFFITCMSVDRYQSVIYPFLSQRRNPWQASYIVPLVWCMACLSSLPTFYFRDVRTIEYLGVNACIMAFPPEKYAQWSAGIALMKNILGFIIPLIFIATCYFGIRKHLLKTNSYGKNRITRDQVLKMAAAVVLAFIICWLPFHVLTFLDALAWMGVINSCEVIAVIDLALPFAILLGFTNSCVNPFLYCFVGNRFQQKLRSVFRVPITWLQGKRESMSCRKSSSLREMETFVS", "type": "functional"}, "[2]": {"biological_target": "Histamine H1 receptor (Homo sapiens, UniProt P35367)", "sequence (P35367 whole entry)": "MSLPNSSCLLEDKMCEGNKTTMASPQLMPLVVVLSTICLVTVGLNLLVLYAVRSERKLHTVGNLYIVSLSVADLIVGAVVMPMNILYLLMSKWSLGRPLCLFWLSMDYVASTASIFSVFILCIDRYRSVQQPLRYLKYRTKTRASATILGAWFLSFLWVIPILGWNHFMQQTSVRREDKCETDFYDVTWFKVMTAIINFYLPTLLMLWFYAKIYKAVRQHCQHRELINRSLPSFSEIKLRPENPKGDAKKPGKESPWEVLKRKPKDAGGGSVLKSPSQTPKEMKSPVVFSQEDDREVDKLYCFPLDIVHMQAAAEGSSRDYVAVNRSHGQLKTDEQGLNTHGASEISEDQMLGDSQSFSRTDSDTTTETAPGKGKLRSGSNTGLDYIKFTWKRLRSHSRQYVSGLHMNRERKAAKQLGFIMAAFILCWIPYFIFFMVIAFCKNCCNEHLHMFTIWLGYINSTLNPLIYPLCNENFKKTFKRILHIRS", "type": "functional, cell-based"}, "[3]": {"biological_target": "5-hydroxytryptamine receptor 5A (Homo sapiens, UniProt P47898)", "sequence (P47898 whole entry)": "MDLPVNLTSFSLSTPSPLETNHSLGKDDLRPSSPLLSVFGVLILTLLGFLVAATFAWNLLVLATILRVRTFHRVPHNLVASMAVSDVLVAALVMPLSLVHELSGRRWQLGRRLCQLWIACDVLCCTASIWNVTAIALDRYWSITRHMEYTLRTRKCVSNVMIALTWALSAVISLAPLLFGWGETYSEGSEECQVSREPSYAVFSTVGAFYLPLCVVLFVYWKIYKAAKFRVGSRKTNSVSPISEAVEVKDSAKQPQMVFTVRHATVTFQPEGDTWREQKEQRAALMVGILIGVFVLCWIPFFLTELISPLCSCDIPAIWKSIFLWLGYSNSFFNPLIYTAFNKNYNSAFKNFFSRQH"}, "[4]": {"biological_target": "Rod cGMP-specific 3',5'-cyclic phosphodiesterase subunit alpha (Homo sapiens, UniProt P16499)", "sequence (P16499 whole entry)": "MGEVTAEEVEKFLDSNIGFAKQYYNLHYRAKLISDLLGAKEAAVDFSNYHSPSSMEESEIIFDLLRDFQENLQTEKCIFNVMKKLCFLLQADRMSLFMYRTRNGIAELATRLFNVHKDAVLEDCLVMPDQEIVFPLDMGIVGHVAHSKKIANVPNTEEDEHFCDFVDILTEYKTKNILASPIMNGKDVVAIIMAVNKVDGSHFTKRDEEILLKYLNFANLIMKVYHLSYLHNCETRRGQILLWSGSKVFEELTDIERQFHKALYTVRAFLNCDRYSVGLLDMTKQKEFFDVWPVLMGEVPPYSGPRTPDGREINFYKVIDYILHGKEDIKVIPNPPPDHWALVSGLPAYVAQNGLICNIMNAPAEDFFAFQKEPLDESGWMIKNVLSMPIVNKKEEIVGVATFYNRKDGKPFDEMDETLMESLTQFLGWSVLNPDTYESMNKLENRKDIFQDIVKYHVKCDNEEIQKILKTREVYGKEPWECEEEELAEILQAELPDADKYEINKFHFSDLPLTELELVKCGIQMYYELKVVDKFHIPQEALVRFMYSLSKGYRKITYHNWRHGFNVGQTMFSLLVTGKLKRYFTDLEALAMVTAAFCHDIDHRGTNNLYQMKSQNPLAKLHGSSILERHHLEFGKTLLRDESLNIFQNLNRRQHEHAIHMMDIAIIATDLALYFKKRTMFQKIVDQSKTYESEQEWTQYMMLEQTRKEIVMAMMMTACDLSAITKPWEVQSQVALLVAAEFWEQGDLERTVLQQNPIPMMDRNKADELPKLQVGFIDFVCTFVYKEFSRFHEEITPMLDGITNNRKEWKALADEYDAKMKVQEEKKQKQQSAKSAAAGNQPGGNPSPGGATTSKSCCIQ", "type": "functional"}, "[5]": {"biological_target": "Gamma-aminobutyric acid type B receptor subunit 1 (Homo sapiens, UniProt Q9UBS5)", "sequence (Q9UBS5 whole entry)": "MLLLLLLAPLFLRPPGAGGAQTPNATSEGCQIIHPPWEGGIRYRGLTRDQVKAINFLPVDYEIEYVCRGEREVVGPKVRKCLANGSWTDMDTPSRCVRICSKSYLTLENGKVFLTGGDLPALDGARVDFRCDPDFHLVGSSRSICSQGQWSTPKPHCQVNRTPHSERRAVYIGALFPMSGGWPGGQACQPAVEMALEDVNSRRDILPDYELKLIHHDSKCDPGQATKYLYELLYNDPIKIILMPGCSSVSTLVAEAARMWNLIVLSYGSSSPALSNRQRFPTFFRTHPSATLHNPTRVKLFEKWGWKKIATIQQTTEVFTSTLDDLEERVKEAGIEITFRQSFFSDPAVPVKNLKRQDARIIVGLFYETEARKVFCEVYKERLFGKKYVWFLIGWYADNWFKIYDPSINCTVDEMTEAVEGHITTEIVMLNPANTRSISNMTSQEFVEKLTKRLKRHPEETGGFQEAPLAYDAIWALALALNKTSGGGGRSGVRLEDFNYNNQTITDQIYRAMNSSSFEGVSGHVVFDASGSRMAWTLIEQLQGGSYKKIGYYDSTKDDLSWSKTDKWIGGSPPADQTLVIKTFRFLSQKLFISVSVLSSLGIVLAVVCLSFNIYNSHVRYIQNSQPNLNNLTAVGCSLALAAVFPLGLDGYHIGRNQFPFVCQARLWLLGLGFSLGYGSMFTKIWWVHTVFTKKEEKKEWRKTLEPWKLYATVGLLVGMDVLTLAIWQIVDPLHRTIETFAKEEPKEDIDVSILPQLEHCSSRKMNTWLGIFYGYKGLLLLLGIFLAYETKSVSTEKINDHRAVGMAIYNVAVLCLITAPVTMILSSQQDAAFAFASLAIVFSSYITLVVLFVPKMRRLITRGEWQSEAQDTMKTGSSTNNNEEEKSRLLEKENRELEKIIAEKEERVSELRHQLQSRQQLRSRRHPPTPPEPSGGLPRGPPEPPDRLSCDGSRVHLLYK"}, "[6]": {"biological_target": "T2, Substance-K receptor (Homo sapiens, UniProt P21452)", "T2 sequence (P21452 whole entry)": "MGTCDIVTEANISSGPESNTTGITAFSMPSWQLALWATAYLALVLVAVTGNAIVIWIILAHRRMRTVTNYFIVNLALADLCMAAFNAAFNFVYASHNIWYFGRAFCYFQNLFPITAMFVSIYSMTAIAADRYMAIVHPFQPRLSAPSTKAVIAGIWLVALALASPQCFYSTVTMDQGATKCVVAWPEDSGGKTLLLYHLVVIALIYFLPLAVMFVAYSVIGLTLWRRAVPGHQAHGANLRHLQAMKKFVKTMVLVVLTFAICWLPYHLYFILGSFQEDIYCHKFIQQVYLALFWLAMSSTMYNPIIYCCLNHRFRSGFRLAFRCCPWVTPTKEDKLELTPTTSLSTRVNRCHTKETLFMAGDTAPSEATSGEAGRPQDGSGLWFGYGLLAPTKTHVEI"}, "[7]": {"biological_target": "D(1B) dopamine receptor (Homo sapiens, UniProt P21918)", "sequence (P21918 whole entry)": "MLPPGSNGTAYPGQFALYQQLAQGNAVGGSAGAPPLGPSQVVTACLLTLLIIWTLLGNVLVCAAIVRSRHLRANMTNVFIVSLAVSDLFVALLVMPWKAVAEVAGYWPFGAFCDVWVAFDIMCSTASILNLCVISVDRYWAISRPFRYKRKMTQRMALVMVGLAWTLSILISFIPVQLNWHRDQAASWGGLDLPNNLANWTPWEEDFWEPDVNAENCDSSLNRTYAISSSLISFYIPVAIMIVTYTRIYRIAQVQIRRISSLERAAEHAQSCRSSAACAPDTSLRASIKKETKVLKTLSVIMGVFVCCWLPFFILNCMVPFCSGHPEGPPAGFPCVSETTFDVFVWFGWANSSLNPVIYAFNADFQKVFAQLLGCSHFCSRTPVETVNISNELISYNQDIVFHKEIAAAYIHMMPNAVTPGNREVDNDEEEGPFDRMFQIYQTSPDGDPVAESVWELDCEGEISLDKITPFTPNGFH"}, "[8]": {"biological_target": "T3, Alpha-1A adrenergic receptor (Homo sapiens, UniProt P35348)", "T3 sequence (P35348 whole entry)": "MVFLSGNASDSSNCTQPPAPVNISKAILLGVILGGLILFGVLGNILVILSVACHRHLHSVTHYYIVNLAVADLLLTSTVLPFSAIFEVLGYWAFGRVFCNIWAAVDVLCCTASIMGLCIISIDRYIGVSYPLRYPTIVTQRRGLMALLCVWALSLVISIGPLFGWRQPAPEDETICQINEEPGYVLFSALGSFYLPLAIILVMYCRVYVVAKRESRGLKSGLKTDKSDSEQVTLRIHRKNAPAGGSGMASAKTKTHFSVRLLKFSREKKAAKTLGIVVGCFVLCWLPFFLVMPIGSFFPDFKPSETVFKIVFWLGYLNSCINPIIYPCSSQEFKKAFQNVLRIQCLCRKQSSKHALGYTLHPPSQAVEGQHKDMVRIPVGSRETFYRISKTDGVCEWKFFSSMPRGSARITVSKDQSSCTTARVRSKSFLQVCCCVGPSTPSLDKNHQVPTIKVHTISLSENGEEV"}, "[9]": {"biological_target": "T4, Corticotropin-releasing factor receptor 1 (Homo sapiens, UniProt P34998)", "T4 sequence (P34998 whole entry)": "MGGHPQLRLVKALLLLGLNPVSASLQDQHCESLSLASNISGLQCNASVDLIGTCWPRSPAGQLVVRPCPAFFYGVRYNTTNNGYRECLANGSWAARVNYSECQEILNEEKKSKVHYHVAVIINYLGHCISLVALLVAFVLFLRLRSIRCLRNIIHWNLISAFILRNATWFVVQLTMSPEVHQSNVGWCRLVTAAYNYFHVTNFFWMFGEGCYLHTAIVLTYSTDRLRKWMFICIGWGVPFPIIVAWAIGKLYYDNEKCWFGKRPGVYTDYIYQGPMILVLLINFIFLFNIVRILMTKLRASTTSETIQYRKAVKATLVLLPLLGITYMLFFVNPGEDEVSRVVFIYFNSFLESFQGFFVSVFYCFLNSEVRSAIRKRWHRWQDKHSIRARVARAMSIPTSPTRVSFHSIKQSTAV"}, "[10]": {"biological_target": "T5, Gastric inhibitory polypeptide receptor (Homo sapiens, UniProt P48546)", "T5 sequence (P48546 whole entry)": "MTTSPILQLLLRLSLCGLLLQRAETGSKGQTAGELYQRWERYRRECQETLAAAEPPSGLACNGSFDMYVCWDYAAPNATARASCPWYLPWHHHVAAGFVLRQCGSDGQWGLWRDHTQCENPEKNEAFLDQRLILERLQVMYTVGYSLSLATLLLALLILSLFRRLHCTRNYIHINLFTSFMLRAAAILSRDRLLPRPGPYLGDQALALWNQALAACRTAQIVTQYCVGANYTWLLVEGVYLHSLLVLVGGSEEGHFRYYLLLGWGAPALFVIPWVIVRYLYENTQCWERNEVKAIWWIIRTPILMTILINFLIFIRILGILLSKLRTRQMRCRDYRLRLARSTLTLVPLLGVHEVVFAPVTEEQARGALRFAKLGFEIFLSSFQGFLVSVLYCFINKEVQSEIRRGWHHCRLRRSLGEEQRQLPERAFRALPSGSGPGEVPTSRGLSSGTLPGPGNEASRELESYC"}, "[11]": {"biological_target": "Hydroxycarboxylic acid receptor 2 (Homo sapiens, UniProt Q8TDS4)", "sequence (Q8TDS4 whole entry)": "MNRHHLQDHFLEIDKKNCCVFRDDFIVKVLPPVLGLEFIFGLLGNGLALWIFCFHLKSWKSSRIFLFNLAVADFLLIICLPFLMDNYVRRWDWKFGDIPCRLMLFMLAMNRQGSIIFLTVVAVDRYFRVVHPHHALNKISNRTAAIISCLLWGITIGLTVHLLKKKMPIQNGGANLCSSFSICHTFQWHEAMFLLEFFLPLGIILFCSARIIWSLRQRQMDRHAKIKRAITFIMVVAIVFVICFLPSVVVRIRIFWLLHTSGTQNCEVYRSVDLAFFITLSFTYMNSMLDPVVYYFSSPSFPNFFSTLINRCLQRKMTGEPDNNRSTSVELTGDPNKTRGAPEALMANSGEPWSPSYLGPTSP"}, "[12]": {"biological_target": "Synaptic vesicular amine transporter (Rattus norvegicus, UniProt Q01827)", "sequence (Q01827 whole entry)": "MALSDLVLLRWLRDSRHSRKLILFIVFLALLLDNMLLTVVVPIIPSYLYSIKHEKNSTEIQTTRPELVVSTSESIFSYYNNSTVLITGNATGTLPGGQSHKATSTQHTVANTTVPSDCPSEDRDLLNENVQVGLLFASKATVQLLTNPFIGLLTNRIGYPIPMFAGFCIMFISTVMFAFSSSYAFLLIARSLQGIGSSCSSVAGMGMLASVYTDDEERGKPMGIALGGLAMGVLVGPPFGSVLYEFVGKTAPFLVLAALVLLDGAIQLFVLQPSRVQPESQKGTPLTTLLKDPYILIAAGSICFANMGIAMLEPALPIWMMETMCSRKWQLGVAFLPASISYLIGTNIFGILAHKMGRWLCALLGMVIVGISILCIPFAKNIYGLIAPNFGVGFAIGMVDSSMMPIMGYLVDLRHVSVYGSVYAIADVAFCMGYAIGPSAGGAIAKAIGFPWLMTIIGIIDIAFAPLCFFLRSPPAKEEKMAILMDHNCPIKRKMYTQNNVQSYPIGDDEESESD", "type": "functional"}, "[13]": {"biological_target": "D(1A) dopamine receptor (Homo sapiens, UniProt P21728)", "sequence (P21728 whole entry)": "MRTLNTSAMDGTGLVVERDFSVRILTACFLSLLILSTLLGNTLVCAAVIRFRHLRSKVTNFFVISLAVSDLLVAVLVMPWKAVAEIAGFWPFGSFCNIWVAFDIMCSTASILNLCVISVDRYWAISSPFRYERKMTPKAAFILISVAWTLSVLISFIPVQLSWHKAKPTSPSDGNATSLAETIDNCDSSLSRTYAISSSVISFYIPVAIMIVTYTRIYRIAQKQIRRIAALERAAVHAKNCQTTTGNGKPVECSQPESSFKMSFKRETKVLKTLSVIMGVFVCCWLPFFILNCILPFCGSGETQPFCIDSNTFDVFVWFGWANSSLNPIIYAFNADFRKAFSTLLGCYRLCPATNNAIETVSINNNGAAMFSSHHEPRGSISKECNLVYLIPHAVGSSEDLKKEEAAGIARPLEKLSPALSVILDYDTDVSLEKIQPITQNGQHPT", "type": "functional, cell-based"}}}
{"smiles": "CN(C)Cc1nnc2n1-c1ccc(Cl)cc1C(c1ccccc1)=NC2", "note": "[ADINAZOLAM]", "values": [{"measurement": "AC50", "setting": "[1]", "result": "> 100", "unit": "µM"}]}
{"smiles": "CN(C)C/C=C/C(=O)Nc1cc2c(Nc3ccc(F)c(Cl)c3)ncnc2cc1O[C@H]1CCOC1", "note": "[AFATINIB]", "values": [{"measurement": "AC50", "setting": "[2]", "result": "> 30", "unit": "µM"}]}
{"smiles": "O=C(/C=C/c1cccc(S(=O)(=O)Nc2ccccc2)c1)NO", "note": "[BELINOSTAT]", "values": [{"measurement": "AC50", "setting": "[3]", "result": "> 10", "unit": "µM"}, {"measurement": "AC50", "setting": "[4]", "result": "> 10", "unit": "µM"}, {"measurement": "AC50", "setting": "[5]", "result": "> 10", "unit": "µM"}, {"measurement": "AC50", "setting": "[6]", "result": "> 10", "unit": "µM"}, {"measurement": "AC50", "setting": "[7]", "result": "> 10", "unit": "µM"}, {"measurement": "AC50", "setting": "[8]", "result": "> 30", "unit": "µM"}]}
{"smiles": "CC(O)(CS(=O)(=O)c1ccc(F)cc1)C(=O)Nc1ccc(C#N)c(C(F)(F)F)c1", "note": "(centres undefined) [BICALUTAMIDE]", "values": [{"measurement": "AC50", "setting": "[5]", "result": "> 10", "unit": "µM"}, {"measurement": "AC50", "setting": "[9]", "result": "> 30", "unit": "µM"}, {"measurement": "AC50", "setting": "[10]", "result": "> 30", "unit": "µM"}]}
{"smiles": "O=C(O)COCCN1CCN(C(c2ccccc2)c2ccc(Cl)cc2)CC1", "note": "(centres undefined) [CETIRIZINE]", "values": [{"measurement": "AC50", "setting": "[11]", "result": "> 10", "unit": "µM"}, {"measurement": "AC50", "setting": "[9]", "result": "> 30", "unit": "µM"}, {"measurement": "AC50", "setting": "[10]", "result": "> 30", "unit": "µM"}]}
{"smiles": "NC[C@H]1CC[C@H](C(=O)Oc2ccc(CCC(=O)O)cc2)CC1", "note": "[CETRAXATE]", "values": [{"measurement": "AC50", "setting": "[8]", "result": "> 30", "unit": "µM"}]}
{"smiles": "CN[C@]1(c2ccccc2Cl)CCCCC1=O", "note": "[ESKETAMINE]", "values": [{"measurement": "AC50", "setting": "[12]", "result": "> 30", "unit": "µM"}]}
{"smiles": "C[C@@H]1C[C@H]2[C@@H]3C[C@H](F)C4=CC(=O)C=C[C@]4(C)[C@@]3(F)[C@@H](O)C[C@]2(C)[C@@]1(OC(=O)c1ccco1)C(=O)SCF", "note": "[FLUTICASONE FUROATE]", "values": [{"measurement": "AC50", "setting": "[5]", "result": "> 10", "unit": "µM"}, {"measurement": "AC50", "setting": "[6]", "result": "> 10", "unit": "µM"}]}
{"smiles": "CNCCc1ccc(OC(=O)C(C)C)c(OC(=O)C(C)C)c1", "note": "[IBOPAMINE]", "values": [{"measurement": "AC50", "setting": "[13]", "result": "> 30", "unit": "µM"}]}
{"smiles": "CN(C)CCCN1c2ccccc2CCc2ccccc21", "note": "[IMIPRAMINE]", "values": [{"measurement": "AC50", "setting": "[1]", "result": "> 100", "unit": "µM"}, {"measurement": "AC50", "setting": "[3]", "result": 2.26, "unit": "µM"}, {"measurement": "AC50", "setting": "[4]", "result": "> 10", "unit": "µM"}, {"measurement": "AC50", "setting": "[12]", "result": 11.4, "unit": "µM"}, {"measurement": "AC50", "setting": "[6]", "result": "> 10", "unit": "µM"}, {"measurement": "AC50", "setting": "[7]", "result": 8.33, "unit": "µM"}, {"measurement": "AC50", "setting": "[9]", "result": "> 30", "unit": "µM"}, {"measurement": "AC50", "setting": "[10]", "result": "> 30", "unit": "µM"}]}
{"smiles": "CN(Cc1cnc2nc(N)nc(N)c2n1)c1ccc(C(=O)N[C@@H](CCC(=O)O)C(=O)O)cc1", "note": "[METHOTREXATE]", "values": [{"measurement": "AC50", "setting": "[9]", "result": "> 30", "unit": "µM"}, {"measurement": "AC50", "setting": "[10]", "result": "> 30", "unit": "µM"}]}
{"smiles": "O=C(O)c1cccnc1Nc1cccc(C(F)(F)F)c1", "note": "[NIFLUMIC ACID]", "values": [{"measurement": "AC50", "setting": "[1]", "result": "> 100", "unit": "µM"}]}
{"smiles": "OC[C@H]1O[C@@H](n2cnc3c2NC=NC[C@H]3O)C[C@@H]1O", "note": "[PENTOSTATIN]", "values": [{"measurement": "AC50", "setting": "[2]", "result": "> 30", "unit": "µM"}]}
{"smiles": "CC(C)c1cccc(C(C)C)c1O", "note": "[PROPOFOL]", "values": [{"measurement": "AC50", "setting": "[13]", "result": "> 30", "unit": "µM"}]}
{"smiles": "CN[C@@H](C)[C@@H](O)c1ccccc1", "note": "[PSEUDOEPHEDRINE]", "values": [{"measurement": "AC50", "setting": "[11]", "result": "> 10", "unit": "µM"}, {"measurement": "AC50", "setting": "[9]", "result": "> 30", "unit": "µM"}, {"measurement": "AC50", "setting": "[10]", "result": "> 30", "unit": "µM"}]}
{"smiles": "O=C1OC(OC(=O)c2cccnc2Nc2cccc(C(F)(F)F)c2)c2ccccc21", "note": "(centres undefined) [TALNIFLUMATE]", "values": [{"measurement": "AC50", "setting": "[2]", "result": "> 30", "unit": "µM"}]}
{"smiles": "O=S1(=O)CCN(CN2CCS(=O)(=O)NC2)CN1", "note": "[TAUROLIDINE]", "values": [{"measurement": "AC50", "setting": "[2]", "result": "> 30", "unit": "µM"}, {"measurement": "AC50", "setting": "[8]", "result": "> 30", "unit": "µM"}]}
{"smiles": "COc1ccc2c(C(=S)N(C)CC(=O)O)cccc2c1C(F)(F)F", "note": "[TOLRESTAT]", "values": [{"measurement": "AC50", "setting": "[8]", "result": "> 30", "unit": "µM"}]}
